Assay results reported in ChEMBL document CHEMBL4699402, “Identification of N-benzothiazolyl-2-benzenesulfonamides as novel ABCA1 expression upregulators” (RSC Med Chem, 2020).
The source made the active and inactive calls. The rule behind the calls is not given here.

Legend:
[1] = Upregulation of ABCA1 expression in human HepG2 cells expressing luciferase plasmid incubated for 24 hrs by luciferase reporter gene assay; assay type: functional, cell-based; details: HepG2, 24 h
[2] = Upregulation of ABCA1 expression in human HepG2 cells expressing luciferase plasmid assessed as maximal increase incubated for 24 hrs by luciferase reporter gene assay relative to control; assay type: functional
[3] = Upregulation of ABCA1 mRNA expression in mouse RAW264.7 cells assessed as maximal fold increase at 5 uM incubated for 24 hrs by RT-qPCR analysis relative to control; assay type: functional
[4] = system: RAW264.7; assay: Upregulation of ABCA1 protein expression in mouse RAW264.7 cells incubated for 24 hrs by western blot analysis; assay type: functional, cell-based; details: dose microM 2.5-10, time 24.0 hrs
[5] = system: HepG2; assay: Cytotoxicity against human HepG2 cells assessed as reduction in cell viability incubated for 72 hrs measured by CCK8 assay; assay type: cell-based; details: hepg2, 72 h
[6] = Upregulation of ABCA1 expression in human HepG2 cells expressing luciferase plasmid assessed as maximal fold increase incubated for 24 hrs by luciferase reporter gene assay relative to control; assay type: functional
[7] = Potency index, ration of WY06 EC50 to test compound EC50 for upregulation of ABCA1 expression in human HepG2 cells expressing luciferase plasmid incubated for 24 hrs by luciferase reporter gene assay; assay type: functional
[8] = system: RAW264.7; assay: Upregulation of ABCA1 mRNA expression in mouse RAW264.7 cells at 5 uM incubated for 24 hrs by RT-qPCR analysis; assay type: functional, cell-based
[9] = system: RAW264.7; assay: Upregulation of ABCA1 protein expression in mouse RAW264.7 cells at 2.5 to 10 uM incubated for 24 hrs by western blot analysis; assay type: functional, cell-based; details: dose microM 2.5-10, time 24.0 hrs
[10] = system: RAW264.7; assay: Upregulation of ABCA1 mRNA expression in mouse RAW264.7 cells at 2.5 to 10 uM incubated for 24 hrs by RT-qPCR analysis; assay type: functional, cell-based; details: dose microM 2.5-10, time 24.0 hrs
[11] = Upregulation of ABCA1 mRNA expression in mouse RAW264.7 cells assessed as maximal upregulation at 10 uM incubated for 24 hrs by RT-qPCR analysis relative to control; assay type: functional
[12] = system: HepG2; assay: Upregulation of ABCA1 expression in human HepG2 cells expressing luciferase plasmid incubated for 24 to 48 hrs by luciferase reporter gene assay; assay type: functional, cell-based; details: dose microM 0.78-50, time hrs 24-48
[13] = system: RAW264.7; assay: Induction of cholesterol efflux in mouse RAW264.7 cells assessed as decrease in cellular 22-NBD-cholesterol content at 2.5 to 10 uM incubated for 24 hrs by DAPI staining based fluorescence analysis; assay type: functional, cell-based; details: dose microM 2.5-10, time 24.0 hrs
[14] = system: RAW264.7; assay: Upregulation of ApoA-I protein expression in mouse RAW264.7 cells at 2.5 to 10 uM by western blot analysis; assay type: functional, cell-based; details: dose microM 2.5-10
[15] = Upregulation of ABCA1 protein expression in mouse RAW264.7 cells assessed as maximal increase at 10 uM incubated for 24 hrs by western blot analysis relative to control; assay type: functional

In the case of `N#CCN(c1nc2ccccc2s1)S(=O)(=O)c1cccc(N)c1`, the EC50 [1] is reported as greater than 50 µM and the Activity [2] is reported as 124%.

With `N#CCN(c1nc2ccc(Cl)cc2s1)S(=O)(=O)c1cccc(N)c1` the “fold change (FC)” value [3] was 1.5, the EC50 [1] was 5.84 µM and the Activity [4] was “Dose-dependent effect”. The Activity [5] was “Non-Toxic”, the “fold change (FC)” value [6] was 1.68 and the Activity [2] was 168%.

For `CCOC(=O)CN(c1nc2ccc(Cl)cc2s1)S(=O)(=O)c1ccc(N)cc1`, the “Ratio EC50” value [7] was “>=15”, the EC50 [1] was 0.37 µM and the Activity [4] was “Dose-dependent effect”. For the same compound, the Activity [5] was “Non-Toxic”, the “fold change (FC)” value [6] was 1.74 and the Activity [8] was “Active”. For the same compound, the Activity [2] was 174%.

Compound `C=CCN(c1nc2ccc(F)cc2s1)S(=O)(=O)c1cccc(N)c1` has an EC50 [1] of 26 µM and an Activity [2] of 152%.

For `C=CCN(c1nc2ccc(Cl)cc2s1)S(=O)(=O)c1ccc(N)cc1`, the EC50 [1] was 10.6 µM and the Activity [2] was 135%.

In the case of `N#CCN(c1nc2ccccc2s1)S(=O)(=O)c1ccc(N)cc1`, the EC50 [1] is reported as 8.51 µM and the Activity [2] is reported as 157%.

`N#CCN(c1nc2ccc(F)cc2s1)S(=O)(=O)c1ccc(N)cc1` showed an EC50 [1] of 2.57 µM and an Activity [2] of 163%.

For `CCOC(=O)CN(c1nc2ccccc2s1)S(=O)(=O)c1ccc(N)cc1`, the EC50 [1] was 1.24 µM, the Activity [5] was “Non-Toxic” and the Activity [2] was 209%.

`C=CCN(c1nc2ccccc2s1)S(=O)(=O)c1cccc(N)c1` gave an EC50 [1] greater than 50 µM and an Activity [2] of 136%.

For `CCOC(=O)CN(c1nc2ccc(OC)cc2s1)S(=O)(=O)c1ccc(N)cc1`, the Activity [9] was “inactive”, the EC50 [1] was 6.38 µM and the Activity [5] was “Non-Toxic”. For the same compound, the “fold change (FC)” value [6] was 1.38, the Activity [10] was “inactive” and the Activity [2] was 138%.

`C=CCN(c1nc2ccc(F)cc2s1)S(=O)(=O)c1ccc(N)cc1` showed an EC50 [1] of 7.4 µM and an Activity [2] of 135%.

`C=CCN(c1nc2ccccc2s1)S(=O)(=O)c1ccc(N)cc1` gave an EC50 [1] of 33.4 µM and an Activity [2] of 115%.

With `N#CCN(c1nc2ccc(Cl)cc2s1)S(=O)(=O)c1ccc(N)cc1` the Activity [11] was 210%, the Activity [12] was “Dose-dependent effect” and the “Ratio EC50” value [7] was greater than 15. For the same compound, the EC50 [1] was 0.41 µM, the Activity [4] was “Dose-dependent effect” and the Activity [5] was “Non-Toxic”. For the same compound, the Activity [13] was “Active”, the Activity [14] was “inactive” and the Activity [15] was 240%. For the same compound, the Activity [2] was 206%.

In the case of `CCOC(=O)CN(c1nc2ccc(F)cc2s1)S(=O)(=O)c1ccc(N)cc1`, the EC50 [1] is reported as 0.97 µM, the Activity [5] is reported as “Non-Toxic” and the Activity [2] is reported as 167%.
